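Where inhibition never reached the appropriate level, the endpoint shown equals the highest concentration tested. Otherwise, values were interpolated linearly from a five-concentration, 48-hour dose response in 96-well plates. TGI: concentration producing complete growth inhibition.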
Tests used:
Assay in all cases: growth of human tumour cells (NCI), 48 h
HL-60(TB) leukemia = tested on: HL-60(TB) leukemia
NCI/ADR-RES ovarian = tested on: NCI/ADR-RES ovarian
SF-539 CNS = tested on: SF-539 CNS
SN12C renal = tested on: SN12C renal
IGROV1 ovarian = tested on: IGROV1 ovarian
OVCAR-3 ovarian = tested on: OVCAR-3 ovarian
NCI-H460 lung = tested on: NCI-H460 lung
COLO 205 colon = tested on: COLO 205 colon
HCT-116 colon = tested on: HCT-116 colon
SNB-75 CNS = tested on: SNB-75 CNS
HOP-92 NSCLC = tested on: HOP-92 NSCLC
A498 renal = tested on: A498 renal
MOLT-4 leukemia = tested on: MOLT-4 leukemia
SNB-78 CNS = tested on: SNB-78 CNS
NCI-H522 lung = tested on: NCI-H522 lung
UACC-257 melanoma = tested on: UACC-257 melanoma
CCRF-CEM leukemia = tested on: CCRF-CEM leukemia
A549 NSCLC = tested on: A549 NSCLC
MALME-3M melanoma = tested on: MALME-3M melanoma
HT29 colon = tested on: HT29 colon
786-0 renal = tested on: 786-0 renal
ACHN renal = tested on: ACHN renal
TK-10 renal = tested on: TK-10 renal
UACC-62 melanoma = tested on: UACC-62 melanoma
SK-MEL-2 melanoma = tested on: SK-MEL-2 melanoma
U251 CNS = tested on: U251 CNS
LXFL 529 NSCLC = tested on: LXFL 529 NSCLC
OVCAR-4 ovarian = tested on: OVCAR-4 ovarian
DU-145 prostate = tested on: DU-145 prostate
SK-MEL-5 melanoma = tested on: SK-MEL-5 melanoma
SW-620 colon = tested on: SW-620 colon
RXF 393 renal = tested on: RXF 393 renal
HCT-15 colon = tested on: HCT-15 colon
HCC-2998 colon = tested on: HCC-2998 colon
KM12 colon = tested on: KM12 colon
SF-295 CNS = tested on: SF-295 CNS
MDA-N = tested on: MDA-N
BT-549 breast = tested on: BT-549 breast
OVCAR-8 ovarian = tested on: OVCAR-8 ovarian
SR leukemia = tested on: SR leukemia
KM20L2 colon = tested on: KM20L2 colon
SK-MEL-28 melanoma = tested on: SK-MEL-28 melanoma
M19-MEL melanoma = tested on: M19-MEL melanoma
SF-268 CNS = tested on: SF-268 CNS
MDA-MB-231 breast = tested on: MDA-MB-231 breast
K-562 leukemia = tested on: K-562 leukemia
MDA-MB-435 = tested on: MDA-MB-435
T-47D breast = tested on: T-47D breast
DMS 273 small cell lung = tested on: DMS 273 small cell lung
RPMI-8226 leukemia = tested on: RPMI-8226 leukemia
SNB-19 CNS = tested on: SNB-19 CNS
NCI-H23 lung = tested on: NCI-H23 lung
OVCAR-5 ovarian = tested on: OVCAR-5 ovarian
EKVX NSCLC = tested on: EKVX NSCLC
HOP-62 NSCLC = tested on: HOP-62 NSCLC
SK-OV-3 ovarian = tested on: SK-OV-3 ovarian
XF 498 CNS = tested on: XF 498 CNS
DLD-1 colon = tested on: DLD-1 colon
LOX IMVI melanoma = tested on: LOX IMVI melanoma
MCF7 breast = tested on: MCF7 breast
M14 melanoma = tested on: M14 melanoma
UO-31 renal = tested on: UO-31 renal
PC-3 prostate = tested on: PC-3 prostate
CAKI-1 renal = tested on: CAKI-1 renal
NCI-H226 lung = tested on: NCI-H226 lung

For `COc1ccc(C2C(Cl)C(=O)N2NC(=O)c2ccc(N)cc2)cc1OC` (stereo not given), the TGI (HL-60(TB) leukemia) was 4.54 µM, the TGI (NCI/ADR-RES ovarian) was 5.16 µM and the TGI (SF-539 CNS) was 21.8 µM. For the same compound, the TGI (SN12C renal) was 24.5 µM, the TGI (IGROV1 ovarian) was 3.27 µM and the TGI (OVCAR-3 ovarian) was 13.1 µM. For the same compound, the TGI (NCI-H460 lung) was 51.8 µM, the TGI (COLO 205 colon) was 30.3 µM and the TGI (HCT-116 colon) was 3 µM. The TGI (SNB-75 CNS) was 33.3 µM, the TGI (HOP-92 NSCLC) was 5.07 µM and the TGI (A498 renal) was 31.5 µM. The TGI (MOLT-4 leukemia) was 5.16 µM, the TGI (SNB-78 CNS) was over 100 µM and the TGI (NCI-H522 lung) was 3.75 µM. For the same compound, the TGI (UACC-257 melanoma) was 29.1 µM, the TGI (CCRF-CEM leukemia) was 4.45 µM and the TGI (A549 NSCLC) was 34.1 µM. For the same compound, the TGI (MALME-3M melanoma) was 25.6 µM, the TGI (HT29 colon) was 6.28 µM and the TGI (786-0 renal) was 8.59 µM. It also gave a TGI (ACHN renal) of 26.9 µM, a TGI (TK-10 renal) of 30.7 µM and a TGI (UACC-62 melanoma) of 16 µM. For the same compound, the TGI (SK-MEL-2 melanoma) was 26.6 µM, the TGI (U251 CNS) was 7.28 µM and the TGI (LXFL 529 NSCLC) was 3.78 µM. The TGI (OVCAR-4 ovarian) was 19 µM, the TGI (DU-145 prostate) was 32.1 µM and the TGI (SK-MEL-5 melanoma) was 26.3 µM. It also gave a TGI (SW-620 colon) of 11.2 µM, a TGI (RXF 393 renal) of 30.4 µM and a TGI (HCT-15 colon) of 21.3 µM. It also gave a TGI (HCC-2998 colon) of 19.9 µM, a TGI (KM12 colon) of 5.64 µM and a TGI (SF-295 CNS) of 18.4 µM. The TGI (MDA-N) was 23.5 µM, the TGI (BT-549 breast) was 18.3 µM and the TGI (OVCAR-8 ovarian) was 16.4 µM. The TGI (SR leukemia) was 4.85 µM, the TGI (KM20L2 colon) was 27.8 µM and the TGI (SK-MEL-28 melanoma) was 17.6 µM. It also gave a TGI (M19-MEL melanoma) of 16.1 µM, a TGI (SF-268 CNS) of 36.8 µM and a TGI (MDA-MB-231 breast) of 39.7 µM. It also gave a TGI (K-562 leukemia) of 16.5 µM, a TGI (MDA-MB-435) of 19.1 µM and a TGI (T-47D breast) of 24.9 µM. The TGI (DMS 273 small cell lung) was 11.8 µM, the TGI (RPMI-8226 leukemia) was 9.04 µM and the TGI (SNB-19 CNS) was 30.5 µM. It also gave a TGI (NCI-H23 lung) of 18.8 µM, a TGI (OVCAR-5 ovarian) of 34.8 µM and a TGI (EKVX NSCLC) of 35.2 µM. For the same compound, the TGI (HOP-62 NSCLC) was 32.6 µM, the TGI (SK-OV-3 ovarian) was 33 µM and the TGI (XF 498 CNS) was 2.3 µM. It also gave a TGI (DLD-1 colon) of 15.4 µM, a TGI (LOX IMVI melanoma) of 3.55 µM and a TGI (MCF7 breast) of 24.7 µM. For the same compound, the TGI (M14 melanoma) was 22.6 µM, the TGI (UO-31 renal) was 25.7 µM and the TGI (PC-3 prostate) was 25.7 µM. It also gave a TGI (CAKI-1 renal) of 6.84 µM and a TGI (NCI-H226 lung) of 38.3 µM.

— PubChem BioAssay (NCI)
